In US20260200947A1, “FUSED CYCLIC COMPOUNDS AND USE THEREOF” (Jacobio Pharmaceuticals Co., Ltd., priority 2022, published 2026):
Like-named read-outs stand apart in the source and are kept apart here.

Experiments:
[1] = molecular target: T1, GDP-KRAS G12V (Homo sapiens, UniProt P01116, G12V); assay: SOS1 catalyzed nucleotide exchange assay, GDP-KRAS G12V; settings: read-out: Biochemical assays, IC50, KRAS G12V GDP, GDP form K-Ras G12V, TR-FRET
[2] = tested on: SW620 cells (K-Ras G12V); assay: Phospho-ERK1/2(THR202/TYR204) HTRF assay, SW620; assay type: cell-based; settings: read-out: pERK, IC50, SW620
Protocol: (§1) Each of cells in culture medium was seeded in 96-well plates at density indicated in Table 4 and put in a cell incubator to incubate overnight. The next day, the culture medium was removed and the compound diluted in assay medium was added in each well. […] 10 μL of cell lysates from the 96-well plates were transferred to a 384-well plate (Greiner) containing 2.5 μL/well HTRF® pre-mixed antibodies (Cisbio 64AERPEH). The plate was incubated 4 hours at 25° C. and read HTRF signals on Tecan Spark multimode microplate reader. The data were analyzed using a 4-parameter logistic model to calculate IC50 values.

[3] = tested on: AsPC-1 cells (K-Ras G12D)
Protocol: (§2) Each of cells in culture medium was plated in TC-treated 96-well plates at a density indicated in Table 4 and incubated in a cell incubator overnight. The next day, each of compounds was diluted in culture medium and added to the plates. After 6 days incubation in cell incubator, the cell viability was detected by CellTiter-Glo® Cell Viability Assay kit (Promega).

[4] = molecular target: T2, GppNp-KRAS G12V (Homo sapiens, UniProt P01116, G12V); assay: GTP-K-Ras and cRAF interaction assay, GppNp-KRAS G12V; settings: read-out: Biochemical assays, IC50, KRAS G12V GppNp; GppNp-loaded K-Ras G12V, cRAF RBD interaction, HTRF
[5] = tested on: SW620 cells (K-Ras G12V)
Protocol: as §2

[6] = Mouse pharmacokinetic study; assay type: in vivo; settings: Balb/c mouse (female); for AUC0-24 h / Cl_obs / Cmax / AUC(0-t): plasma; for F: 10 mg/kg po vs 3 mg/kg iv; for AUC(0-t): read-out: AUC0-24 h
Protocol: The purpose of this study was to evaluate the pharmacokinetic properties of compounds in Balb/c mouse (female) following single dose administration. Six mice were needed for each compound and the six mice were divided into two groups (n=3/group), group A and group B. Mice in group A were treated with a single 3 mg/kg dose of compound (iv). Mice in group B were treated with a single 10 mg/kg dose of compound (po). Foreach mouse in group A, blood samples were collected at the time point of 0.083 h 0.5 h, 1 h, 2 h, 4 h, 8 h and 24 h post-dose. For each mouse in group B, blood samples were collected at the time point of 0.25 h, 0.5 h, 1 h, 2 h, 4 h, 8 h and 24 h post-dose. Blood samples were placed on ice until centrifugation to obtain plasma samples. The plasma samples were stored at −80° C. until analysis. The concentration of compound in plasma samples was determined using a LC-MS/MS method.

[7] = molecular target: T3, GDP-KRAS G12D (Homo sapiens, UniProt P01116, G12D); assay: SOS1 catalyzed nucleotide exchange assay, GDP-KRAS G12D; settings: read-out: Biochemical assays, IC50, KRAS G12D GDP, GDP form K-Ras G12D, TR-FRET
[8] = molecular target: T4, GppNp-KRAS G12D (Homo sapiens, UniProt P01116, G12D); assay: GTP-K-Ras and cRAF interaction assay, GppNp-KRAS G12D; settings: read-out: Biochemical assays, IC50, KRAS G12D GppNp; GppNp-loaded K-Ras G12D, cRAF RBD interaction, HTRF
[9] = tested on: Capan-2 cells (K-Ras G12V)
Protocol: as §1

[10] = molecular target: T1, GDP-KRAS G12V; assay: biochemical
[11] = molecular target: T2, GppNp-KRAS G12V; assay: biochemical
[12] = molecular target: T3, GDP-KRAS G12D; assay: biochemical
[13] = molecular target: T4, GppNp-KRAS G12D; assay: biochemical
[14] = tested on: AGS cells (K-Ras G12D)
Protocol: as §1

[15] = tested on: AGS cells (K-Ras G12D); remark: listed apart in the source
Protocol: as §2

T1 sequence (P01116 1-169 isoform P01116-2 G12V): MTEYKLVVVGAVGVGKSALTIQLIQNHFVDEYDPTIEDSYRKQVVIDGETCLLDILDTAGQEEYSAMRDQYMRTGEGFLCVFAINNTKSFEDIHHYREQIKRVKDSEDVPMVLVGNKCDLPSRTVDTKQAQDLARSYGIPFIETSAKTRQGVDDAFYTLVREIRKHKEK
T2 sequence (P01116 1-169 isoform P01116-2 G12V): as above
T3 sequence (P01116 1-169 isoform P01116-2 G12D): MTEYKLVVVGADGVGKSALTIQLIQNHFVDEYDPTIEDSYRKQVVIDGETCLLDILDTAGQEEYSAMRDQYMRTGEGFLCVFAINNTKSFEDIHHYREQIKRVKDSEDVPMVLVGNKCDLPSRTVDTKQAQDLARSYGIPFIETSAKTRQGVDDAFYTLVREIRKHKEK
T4 sequence (P01116 1-169 isoform P01116-2 G12D): as above

Compound	IC50 [1] [µM]	IC50 ([2]; 2 hours incubation) [µM]	IC50 [3] [µM]	IC50 [4] [µM]	IC50 [5] [µM]	IC50 [7] [µM]	IC50 [8] [µM]	IC50 [9] [µM]	further results
C#Cc1c(F)ccc2cc(N)cc(-c3nc4c5c(nc(OC[C@@]67CCCN6C[C@H](F)C7)nc5c3F)N3[C@@H](COCC[C@@H]3C)CO4)c12 [Compound 38A]	0.000292	0.000648	0.0287	0.0756	0.00264	0.00046	0.0519	–	AUC0-24 h ([6]; 3 mg/kg, iv): 4004 ng·h/mL; Cl_obs ([6]; 3 mg/kg, iv): 12.7 mL/min/kg; F [6]: 39.1%; AUC0-24 h ([6]; 10 mg/kg, po): 5213 ng·h/mL; Cmax ([6]; 10 mg/kg, po): 971 ng/mL
C#Cc1c(F)ccc2cc(N)cc(-c3nc4c5c(nc(OC[C@@]67CCCN6C[C@H](F)C7)nc5c3F)N3CCC=C[C@H](F)[C@H]3N4C)c12 [Compound 108A]	0.00295	–	0.0627	0.214	0.0158	0.00332	0.106	0.00881	–
C#Cc1c(F)ccc2cc(N)cc(-c3nc4c5c(nc(OCC67CCCN6CC(F)C7)nc5c3F)N3C(C)CCOCC3CO4)c12 (centres unmarked) [Compound 38B]	0.000397	0.00259	0.0613	0.685	0.00547	0.00105	0.174	–	–
C#Cc1c(F)ccc2cc(N)cc(-c3nc4c5c(nc(OCC67CCCN6CC(F)C7)nc5c3F)N3C(C(F)F)CCOCC3N4C)c12 (centres unmarked) [Compound 52B]	0.00197	–	0.111	0.622	0.0295	0.00325	0.302	0.00201	–
[2H]C([2H])([2H])N1c2nc(-c3cc(N)cc4ccc(F)c(C#C)c34)c(F)c3nc(OC[C@@]45CCCN4C[C@H](F)C5)nc(c23)N2CCCOC[C@H]21 [Compound 48]	–	–	0.0266	–	0.00255	–	–	0.00165	IC50 [10]: 0.000595 µM; IC50 [11]: 0.0554 µM; IC50 [12]: 0.000759 µM; IC50 [13]: 0.0358 µM; IC50 ([2]; Homo sapiens, SW-620, 2 hours incubation): 0.00368 µM; IC50 [14]: 0.00353 µM; IC50 [15]: 0.00344 µM
C#Cc1c(F)ccc2cc(N)cc(-c3nc4c5c(nc(OC[C@@]67CCCN6C[C@H](F)C7)nc5c3F)N3CC(C)COCC3N4C)c12 (single isomer, unassigned) [Compound 103]	0.00179	0.0101	0.18	0.101	0.0145	0.00345	0.214	–	–
C#Cc1c(F)ccc2cc(N)cc(-c3nc4c5c(nc(OC[C@@]67CCCN6C[C@H](F)C7)nc5c3F)N3[C@H]5COC[C@H]5COC[C@H]3N4C)c12 [Compound 123D]	–	–	–	–	–	–	–	0.00207	IC50 [14]: 0.00218 µM
C#Cc1c(F)ccc2cc(N)cc(-c3nc4c5c(nc(OC[C@@]67CCCN6C[C@H](F)C7)nc5c3F)N3CCCOCC3N4CCC(F)(F)F)c12 (some centres unmarked) [Compound 104]	–	–	–	–	–	–	–	–	IC50 [10]: 0.0176 µM; IC50 [11]: > 1 µM; IC50 [12]: 0.00919 µM; IC50 [13]: > 1 µM; IC50 [14]: 0.485 µM
C#Cc1c(F)ccc2cc(N)cc(-c3nc4c5c(nc(OC[C@@]67CCCN6C[C@H](F)C7)nc5c3F)N3CC(F)(F)CCC[C@@H]3N4C)c12 [Compound 106A]	0.226	–	–	> 1	–	0.63	> 1	–	–
N#Cc1c(N)sc2c(F)ccc(-c3c(F)c4c5c(nc(OC[C@@]67CCCN6C[C@H](F)C7)nc5c3F)N3CCCOC[C@H]3CO4)c12 (single isomer, unassigned) [Compound 163B]	–	–	0.014	–	0.00215	–	–	0.0062	IC50 [10]: 0.00104 µM; IC50 [11]: 0.0183 µM; IC50 [12]: 0.000879 µM; IC50 [13]: 0.00804 µM; Cl_obs ([6]; 3 mg/kg, iv): 1.86 mL/min/kg; AUC(0-t) ([6]; 3 mg/kg, iv): 27300 ng·h/mL; F [6]: 25.3%; AUC(0-t) ([6]; 10 mg/kg, po): 23000 ng·h/mL; Cmax ([6]; 10 mg/kg, po, read-out: Cmax): 5310 ng/mL
C#Cc1c(F)ccc2cc(N)cc(-c3nc4c5c(nc(OCC67CCCN6CC(F)C7)nc5c3F)N3CCCCCC3CO4)c12 (centres unmarked) [Compound 27B]	0.00269	0.0124	0.11	0.563	0.0169	0.00251	0.174	–	–
